Measured values as given in patent EP4617273A1, “FUSED TRICYCLIC PARP1 INHIBITOR, PREPARATION METHOD THEREFOR, AND USE THEREOF” (Haihe Biopharma Co., Ltd., priority 2022, dated 2024).

Experiments:
[1] = molecular target: T1, recombinant human PARP2 protein (Homo sapiens, UniProt Q9UGN5); assay: PARP2 enzymatic inhibitory activity, histone substrate, chemiluminescent ELISA; format: biochemical; conditions: histone substrate, 500 µM NAD+ not added; read-out: PARP2 IC50
T1 construct: purchased BPS 80502
Description: The PARP2 inhibitory activity assay was performed as in Experimental Method 1, except that PARP1 solution in step 2 of "3. Ribosylation reaction" was replaced with recombinant human PARP2 solution, and 500 µM NAD+ was not added in step 5 of the ribosylation reaction. Table 1. IC50 for inhibition of PARP1/2 enzymes by compounds of the present invention

[2] = molecular target: T2, Recombinant human PARP1 protein (Homo sapiens, UniProt P09874); assay: PARP1 enzymatic inhibitory activity, histone substrate, chemiluminescent ELISA; conditions: PARP2 IC50 over PARP1 IC50
Description: (§1) The PARP1/2 inhibitory activity of the compounds of the present invention was tested in an assay using Histone as a substrate.
(§2) Aim of the assay: to test the PARP1/2 enzymatic activity inhibition IC50 values of the compounds of the present application according to established experimental methods.
(§3) 1. Compound Configuration: Dilute the compounds with DMSO in 384-well plates to a 1000-fold final concentration and set aside.
(§4) 1) Dilute Histone with PBS, add 25uL of Histone mixture to each well and incubate for 2 h. 2) Wash each well 5 times using PBST solution. Remove the solution with a clean paper towel.3) Add 75 uL of Blocking buffer to each well and incubate for 1 h at rt. 4) Wash each well 5 times using PBST solution. Remove the solution with a clean paper towel.
(§5) 2) Use 1× Assay buffer to prepare 2.5× final concentration of PARP1 solution. 3) Add 10 uL of enzyme solution to the compound wells and Max control wells; add 10 uL of 1× Assay buffer. […] 6) Centrifuge at 1000 rpm for 60 seconds and incubate at rt for 2 h. 7) Each well was washed 5 times with PBST solution. Remove the solution with a clean paper towel.
(§6) 1) Prepare Streptavidin-HRP solution, add 25 µL to each well, centrifuge at 1000 rpm for 60 sec, and incubate at rt for 30 min. 2) Wash each well 5 times using PBST solution. Remove the solution with a clean paper towel. 3) Add 50 µL of ELISA Chemiluminescent Substrate per well. 4) Centrifuge at 1000 rpm for 60 seconds and read with EnSight after 5 min.
(§7) The inhibition rate was calculated using the following formula: % inhibition = (max signal - compound signal) / (max signal - min signal) × 100, where 'min signal' is the mean value of negative control wells and 'max signal' is the mean value of positive control wells.
(§8) Fitting the quantitative effect curve: using the log value of the concentration as the X-axis and the percentage inhibition as the Y-axis; using the log(inhibitor) vs. response-variable slope method in software GraphPadPrism5 to fit the quantitative effect curve to calculate the IC50 value for the inhibition of the enzyme activity by the compounds of the present invention. The fitting formula is: Y=Bottom+ (Top-Bottom)/(1+10^((logIC50-X)*HillSlope)).

[3] = molecular target: T2, Recombinant human PARP1 protein; assay: biochemical
Description: as §1, §2, §3, §4, §5, §6, §7, §8

MDA-MB-436 cells = assay: MDA-MB-436 cell proliferation inhibition test (CellTiter-Glo, 7 days); format: cell-based; conditions: Homo sapiens, MDA-MB-436, 168 h, 7 days incubation
Description: Human breast cancer MDA-MB-436 (purchased from ATCC) cells were cultured in DMEM medium (supplemented with 10% fetal bovine serum with 1% dual antibody) at 37 °C, 5% CO2. The cells were taken from the logarithmic growth phase, digested and prepare cell suspension witha certain concentration, which was inoculated into 96-well plates. 100 µL of cell suspension was added to each well of the 96-well plates, incubated overnight, then different concentrations of compounds were added, and the cells were incubated in the cell culture incubator for 7 days. At the end of incubation, 50 µL of CellTiter-Glo reagent was added to each well, mixed with a microplate and shaked for 2 min, and left at rt for 60 min, then the fluorescence value was read with a Spark® multimode microplate reader. […] Table 2. proliferation inhibitory activity of compounds of the present invention on MDA-MB-436 cells

T2 sequence (P09874 whole entry): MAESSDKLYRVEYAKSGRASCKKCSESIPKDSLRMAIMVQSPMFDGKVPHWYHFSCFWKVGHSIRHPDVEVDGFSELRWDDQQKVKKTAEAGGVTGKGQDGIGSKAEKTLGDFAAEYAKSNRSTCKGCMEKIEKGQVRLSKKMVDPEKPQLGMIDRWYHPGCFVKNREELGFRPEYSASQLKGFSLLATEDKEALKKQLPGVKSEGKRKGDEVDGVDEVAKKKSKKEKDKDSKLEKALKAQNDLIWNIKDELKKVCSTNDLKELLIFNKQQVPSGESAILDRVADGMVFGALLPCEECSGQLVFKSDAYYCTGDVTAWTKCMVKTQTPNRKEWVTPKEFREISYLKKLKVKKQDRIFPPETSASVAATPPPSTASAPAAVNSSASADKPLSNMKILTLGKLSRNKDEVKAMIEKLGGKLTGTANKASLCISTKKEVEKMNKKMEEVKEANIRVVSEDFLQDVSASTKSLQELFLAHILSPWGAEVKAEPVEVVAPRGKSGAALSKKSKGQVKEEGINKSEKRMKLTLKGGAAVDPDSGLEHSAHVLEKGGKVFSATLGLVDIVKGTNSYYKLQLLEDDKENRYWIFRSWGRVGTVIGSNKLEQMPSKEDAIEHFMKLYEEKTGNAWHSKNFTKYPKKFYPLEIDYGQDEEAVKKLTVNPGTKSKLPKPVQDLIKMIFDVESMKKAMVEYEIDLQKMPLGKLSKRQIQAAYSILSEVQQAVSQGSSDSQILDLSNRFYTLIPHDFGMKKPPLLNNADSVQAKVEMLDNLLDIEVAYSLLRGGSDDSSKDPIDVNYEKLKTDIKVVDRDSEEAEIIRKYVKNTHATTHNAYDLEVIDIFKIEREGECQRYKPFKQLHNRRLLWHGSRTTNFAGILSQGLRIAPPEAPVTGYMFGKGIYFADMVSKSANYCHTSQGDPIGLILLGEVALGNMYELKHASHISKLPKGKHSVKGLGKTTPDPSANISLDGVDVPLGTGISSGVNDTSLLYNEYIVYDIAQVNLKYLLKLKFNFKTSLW
T1 sequence (Q9UGN5 whole entry): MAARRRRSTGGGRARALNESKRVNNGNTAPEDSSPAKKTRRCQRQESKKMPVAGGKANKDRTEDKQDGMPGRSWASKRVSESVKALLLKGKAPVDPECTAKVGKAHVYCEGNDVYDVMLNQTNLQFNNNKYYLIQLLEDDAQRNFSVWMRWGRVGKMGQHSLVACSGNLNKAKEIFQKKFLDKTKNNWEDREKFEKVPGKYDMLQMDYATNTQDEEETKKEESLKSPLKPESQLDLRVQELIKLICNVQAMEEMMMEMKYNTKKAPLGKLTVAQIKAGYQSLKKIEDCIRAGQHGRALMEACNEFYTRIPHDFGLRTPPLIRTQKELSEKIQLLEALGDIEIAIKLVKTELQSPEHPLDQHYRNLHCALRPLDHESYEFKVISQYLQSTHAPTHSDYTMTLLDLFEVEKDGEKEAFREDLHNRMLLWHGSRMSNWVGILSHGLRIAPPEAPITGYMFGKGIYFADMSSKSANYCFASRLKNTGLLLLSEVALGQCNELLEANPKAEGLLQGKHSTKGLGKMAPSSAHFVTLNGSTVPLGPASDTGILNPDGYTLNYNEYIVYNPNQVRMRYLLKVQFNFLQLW

Compound	IC50 [1] [nM]	PARP1/2 Fold selectivity [2]	IC50 [3] [nM]	IC50 (MDA-MB-436 cells) [nM]
CNC(=O)c1ccc(N2CCN(C(C)c3ccc4c(c3)[nH]c(=O)c3cccn34)CC2)c(F)n1 (centres unmarked) [Compound 5]	17.3	115.3	0.15	
CNC(=O)c1ccc(N2CCN(C(C)c3ccc4c(c3)[nH]c(=O)c3cccn34)CC2)cn1 (centres unmarked) [Compound 6]	21.7	51.7	0.42	
CNC(=O)c1ccc(N2CCN(C(C)c3ccc4c([nH]c(=O)c5cccn54)c3F)CC2)c(F)n1 (centres unmarked) [Compound 7]	204	536.3	0.38	
CNC(=O)c1ccc(N2CCN(C(C)c3ccc4c([nH]c(=O)c5cccn54)c3F)CC2)cn1 (centres unmarked) [Compound 8]	118	57.9	2.04	
CNC(=O)c1ccc(N2CCN(C(C)c3ccc4c([nH]c(=O)c5ccnn54)c3F)CC2)c(F)n1 (centres unmarked) [Compound 13]	3150	1098.6	2.87	
CNC(=O)c1ccc(N2CCN(C(C)c3ccc4c(c3)[nH]c(=O)c3cnn(C)c34)CC2)c(F)n1 (centres unmarked) [Compound 15]	313	86.8	3.6	
CNC(=O)c1ccc(N2CCN(Cc3ccc4c(c3)[nH]c(=O)c3cnn(C)c34)CC2)c(F)n1 [Compound 16]			0.22	
CNC(=O)c1ccc(N2CCN(C(C)c3ccc4c([nH]c(=O)c5cn(C)nc54)c3F)CC2)c(F)n1 (centres unmarked) [Compound 19]			273	
CNC(=O)c1ccc(N2CCN(Cc3ccc4c([nH]c(=O)c5cnnn54)c3F)CC2)c(F)n1 [Compound 26]			17.7	
CCNC(=O)c1ccc(N2CCN(Cc3ccc4c(c3F)NC(=O)N3C[C@@H](C)N=C43)CC2)c(C)n1 [Compound 34]	780	426.4	1.83	
CNC(=O)c1ccc(OC2CCN(Cc3ccc4c(c3)[nH]c(=O)c3ccnn34)C2)cn1 (centres unmarked) [Compound 75]	1870	113.5	16.5	
CNC(=O)c1ccc(N2CCN(Cc3ccc4c([nH]c(=O)c5sccc54)c3F)CC2)c(F)n1 [Compound 77]			0.6	
CNC(=O)c1ccc(N2CCN(Cc3ccc4c([nH]c(=O)c5cscc54)c3F)CC2)c(F)n1 [Compound 80]			0.85	
CC(c1ccc2c([nH]c(=O)c3ccnn32)c1F)N1CCN(c2ccc(C#N)cn2)CC1 (centres unmarked) [Compound 98]			18.4	
CC(c1ccc2c([nH]c(=O)c3ccnn32)c1F)N1CCN(c2ccc(F)cc2F)CC1 (centres unmarked) [Compound 99]			571	
CNC(=O)c1ccc(N2CCN(Cc3ccc4c(c3)[nH]c(=O)c3cn(C)nc34)CC2)c(F)n1 [Compound 101]			1.7	9.3
O=C(N[C@@H]1CCOC1)c1ccc(N2CCN(Cc3ccc4c([nH]c(=O)c5ccnn54)c3F)CC2)c(F)n1 [Compound 112]			14.2	
CNC(=O)c1ccc(N2CCN(Cc3ccc4c(c3)[nH]c(=O)n3cc(C)nc43)CC2)c(F)n1 [Compound 117]			0.5	
CNC(=O)c1ccc(N2CCN(Cc3ccc4c(c3F)NC(=O)N3CCN=C43)CC2)c(F)n1 [Compound 123]			0.8	27.4

Compound	IC50 [1] [nM]	PARP1/2 Fold selectivity [2]	IC50 [3] [nM]	IC50 (MDA-MB-436 cells) [nM]
CNC(=O)c1ccc(N2CCN(Cc3ccc4c(c3)NC(=O)N3CCN=C43)CC2)c(F)n1 [Compound 124]	561	524.6	1.07	
CNC(=O)c1ccc(N2CCN(Cc3ccc4c(c3F)NC(=O)N3CCN=C43)CC2)c(Cl)n1 [Compound 126]			1.3	5.4
CNC(=O)c1ccc(N2CCN(Cc3ccc4c(c3C)NC(=O)N3CCN=C43)CC2)c(F)n1 [Compound 127]			7.3	
CCNC(=O)c1ccc(N2CCN(Cc3ccc4c(c3F)NC(=O)N3CCN=C43)CC2)c(F)n1 [Compound 128]			2.2	
CNC(=O)c1ccc(N2CCN(Cc3ccc4c(c3F)NC(=O)N3CCN=C43)CC2)c(C)n1 [Compound 129]				< 1.52
Cc1nc(C(=O)NC2CC2)ccc1N1CCN(Cc2ccc3c(c2F)NC(=O)N2CCN=C32)CC1 [Compound 130]			3.4	
CNC(=O)c1ccc(N2CCN(Cc3ccc4c(c3F)NC(=O)N3C[C@H](C)N=C43)CC2)c(F)n1 [Compound 133]			1.2	28.7
CNC(=O)c1ccc(N2CCN(Cc3ccc4c(c3Cl)NC(=O)N3CCN=C43)CC2)c(F)n1 [Compound 134]	3680	1313.2	2.8	
CNC(=O)c1ccc(N2CCN(Cc3cc4c(cc3Cl)C3=NCCN3C(=O)N4)CC2)c(F)n1 [Compound 135]			9.6	
CNC(=O)c1ccc(N2CCN(Cc3ccc4c(c3F)NC(=O)N3CC(C)(C)N=C43)CC2)c(F)n1 [Compound 136]	8870	785	11.3	
CNC(=O)c1ccc(N2CCN(Cc3ccc4c(c3F)NC(=O)N3CCCN=C43)CC2)c(C)n1 [Compound 140]			1.5	12.8
CNC(=O)c1ccc(N2CCN(Cc3ccc4c(c3F)NC(=O)N3CC[C@H](C)N=C43)CC2)c(F)n1 [Compound 142]	> 10000	>1756	5.6	
CNC(=O)c1ccc(N2CCN(Cc3ccc4c(c3F)NC(=O)N3CC[C@@H](C)N=C43)CC2)c(F)n1 [Compound 143]			4.6	
CNC(=O)c1ccc(N2CCN(Cc3ccc4c(c3F)NC(=O)N3C[C@H](F)CN=C43)CC2)c(C)n1 [Compound 145]			0.6	8.9
CNC(=O)c1ccc(N2CCN(Cc3ccc4c(c3F)NC(=O)N3C[C@H](F)CN=C43)CC2)c(Cl)n1 [Compound 146]				12.4
CNC(=O)c1ccc(N2CCN(Cc3ccc4c(c3F)NC(=O)N3CC(F)(F)CN=C43)CC2)c(F)n1 [Compound 148]				3.6
CNC(=O)c1ccc(N2CCN(Cc3ccc4c(c3F)NC(=O)N3C[C@H](C)N=C43)CC2)c(C)n1 [Compound 151]			1.1	17.5
CNC(=O)c1ccc(N2CCN(Cc3ccc4c(c3F)NC(=O)N3C[C@H](C)N=C43)CC2)c(Cl)n1 [Compound 152]			1.5	21.5
CNC(=O)c1ccc(N2CCN(Cc3ccc4c(c3F)NC(=O)N3C[C@@H](C)N=C43)CC2)c(C)n1 [Compound 153]			1.3	8.1

Compound	IC50 [1] [nM]	PARP1/2 Fold selectivity [2]	IC50 [3] [nM]	IC50 (MDA-MB-436 cells) [nM]
CCNC(=O)c1ccc(N2CCN(Cc3ccc4c(c3F)NC(=O)N3CCCN=C43)CC2)c(F)n1 [Compound 171]			0.7	
CCNC(=O)c1ccc(N2CCN(Cc3ccc4c(c3F)NC(=O)N3C[C@@H](C)N=C43)CC2)c(F)n1 [Compound 172]			0.7	5.7
CCNC(=O)c1ccc(N2CCN(Cc3ccc4c(c3F)NC(=O)N3CCCN=C43)CC2)c(Cl)n1 [Compound 183]			0.36	9.2
CCNC(=O)c1ccc(N2CCN(Cc3ccc4c(c3F)NC(=O)N3CCCN=C43)CC2)c(C)n1 [Compound 184]			1.13	
CCNC(=O)c1ccc(N2CCN(Cc3ccc4c(c3F)NC(=O)N3CC(F)(F)CN=C43)CC2)c(F)n1 [Compound 186]			0.58	6.4
C[C@@H]1CN2C(=O)Nc3c(ccc(CN4CCN(c5ccc(C#N)cn5)CC4)c3F)C2=N1 [Compound 187]			0.95	
CNC(=O)c1ccc(N2CCN(Cc3ccc4c(c3)NC(=O)N3C[C@@H](C)N=C43)CC2)c(Cl)n1 [Compound 189]			0.67	
CNC(=O)c1ccc(N2CCN(Cc3ccc4c(c3)NC(=O)N3C[C@@H](C)N=C43)CC2)c(C)n1 [Compound 190]			0.34	
CNC(=O)c1ccc(N2CCN(Cc3ccc4c(c3)NC(=O)N3CCCN=C43)CC2)c(C)n1 [Compound 192]			1	
CNC(=O)c1ccc(N2CCN(Cc3ccc4c(c3F)NC(=O)N3C[C@@H](C)N=C43)CC2)cn1 [Compound 193]			1.7	
CNC(=O)c1ccc(C2CCN(Cc3ccc4c(c3F)NC(=O)N3C[C@@H](C)N=C43)CC2)c(Cl)n1 [Compound 194]			2.2	
O=C1Nc2c(ccc(CN3CCN(c4ccc(F)cc4F)CC3)c2F)C2=NCCCN12 [Compound 195]			40.8	
CNC(=O)c1ccc(N2CCN(Cc3ccc4c(c3F)NC(=O)N3C[C@@H](C)N=C43)[C@H](C)C2)c(Cl)n1 [Compound 197]			0.3	
C[C@@H]1CN2C(=O)Nc3c(ccc(CN4CCN(c5ccc(C(=O)NCC(F)F)nc5Cl)CC4)c3F)C2=N1 [Compound 198]			0.5	
CNC(=O)c1ccc(O[C@H]2CN(Cc3ccc4c(c3F)NC(=O)N3C[C@@H](C)N=C43)[C@@H]2C)cn1 [Compound 199]			0.6	
O=C(NC1CC1)c1ccc(N2CCN(Cc3ccc4c(c3F)NC(=O)N3CCCN=C43)CC2)c(Cl)n1 [Compound 202]			1.6	
CNC(=O)c1ccc(N2CCN(Cc3ccc4c(c3F)NC(=O)N3C[C@@H](C)N=C43)CC2)c(C(F)F)n1 [Compound 203]			1.4	
CNC(=O)c1ccc(N2CCN(Cc3ccc4c(c3F)NC(=O)N3CCCN=C43)CC2)c(C(F)F)n1 [Compound 204]			1.5	
